Read-outs that look alike come from different tables or passages of the source.
Target: T1, kinase-domain human PKCι (Homo sapiens, UniProt P41743)
T1 construct: Recombinant, kinase-domain human PKCι is expressed and purified in-house; made in house
T1 sequence (P41743 254-522 limits assumed): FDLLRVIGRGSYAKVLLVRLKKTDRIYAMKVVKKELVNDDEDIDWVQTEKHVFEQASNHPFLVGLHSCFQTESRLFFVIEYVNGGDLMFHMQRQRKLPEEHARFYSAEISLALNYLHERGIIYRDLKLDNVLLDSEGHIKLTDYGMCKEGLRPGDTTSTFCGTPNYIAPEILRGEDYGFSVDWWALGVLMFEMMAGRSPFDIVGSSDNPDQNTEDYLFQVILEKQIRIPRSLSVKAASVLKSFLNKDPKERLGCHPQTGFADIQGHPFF
Assay: PKCι IC50 IMAP fluorescence polarisation assay, kinase-domain enzyme
Type: biochemical
Conditions: kinase domain PKCi at 2 μM ATP

[1] = read-out: IC50 in IMAP assay against kinase domain PKCi (Activity)
[2] = read-out: IC50 in IMAP assay against kinase domain PKCi

Structure (SMILES) | IC50 [1] [µM] | IC50 [2] [µM]
Cc1n[nH]c(C)c1-c1nc(N2CCCNCC2)c2c3c(sc2n1)CCCC3 [compound 191, 4-[1,4]Diazepan-1-yl-2-(3,5-dimethyl-1H-pyrazol-4-yl)-5,6,7,8-tetrahydro-benzo[4,5]thieno[2,3-d]pyrimidine] | 0.1 to 1 | 
c1ccc(-c2cc3nc(-c4ccncc4)nc(N4CCNCC4)c3s2)cc1 [compound 301, 6-phenyl-4-piperazin-1-yl-2-pyridin-4-yl-thieno[3,2-d]pyrimidine] | 1 to 10 | 
Cc1csc2c(NC[C@@H](N)Cc3ccccc3)nc(-c3ccncc3)nc12 [compound 302] | < 0.1 | 
C[C@H](N)CNc1nc(-c2ccncc2)nc2cc(C(C)(C)C)sc12 [compound 307, (S)-N*1*-(6-tert-Butyl-2-pyridin-4-yl-thieno[3,2-d]pyrimidin-4-yl)-propane-1,2-diamine] |  | 10 to 40
C[C@@H](N)CNc1nc(-c2ccncc2)nc2cc(C(C)(C)C)sc12 [compound 308, (R)-N*1*-(6-tert-Butyl-2-pyridin-4-yl-thieno[3,2-d]pyrimidin-4-yl)-propane-1,2-diamine] |  | 10 to 40
CC(C)(C)c1cc2nc(-c3ccncc3)nc(NCCN)c2s1 [compound 311, N*1*-(6-tert-Butyl-2-pyridin-4-yl-thieno[3,2-d]pyrimidin-4-yl)-ethane-1,2-diamine] |  | 10 to 40
Cc1csc2c(N[C@@H]3CCNC3)nc(-c3ccncc3)nc12 [compound 312, (7-Methyl-2-pyridin-4-yl-thieno[3,2-d]pyrimidin-4-yl)-(R)-pyrrolidin-3-yl-amine] |  | 1 to 10
NCCNc1nc(-c2ccncc2)nc2cc(-c3ccccc3)sc12 [compound 313, N*1*-(6-Phenyl-2-pyridin-4-yl-thieno[3,2-d]pyrimidin-4-yl)-ethane-1,2-diamine] |  | 10 to 40
CC(C)(C)c1ccc(-c2cc3nc(-c4ccncc4)nc(N4CCCNCC4)c3s2)cc1 [compound 356, 6-(4-tert-butyl-phenyl)-4-[1,4]diazepan-1-yl-2-pyridin-4-yl-thieno[3,2-d]pyrimidine] |  | 10 to 40
C[C@@H](N)CNc1nc(-c2ccncc2)nc2cc(-c3ccc(C(C)(C)C)cc3)sc12 [compound 358, (R)-N*1*-[6-(4-tert-Butyl-phenyl)-2-pyridin-4-yl-thieno[3,2-d]pyrimidin-4-yl]-propane-1,2-diamine] |  | 10 to 40
C[C@H](N)CNc1nc(-c2ccncc2)nc2cc(-c3ccc(C(C)(C)C)cc3)sc12 [compound 359, (S)-N*1*-[6-(4-tert-Butyl-phenyl)-2-pyridin-4-yl-thieno[3,2-d]pyrimidin-4-yl]-propane-1,2-diamine] |  | 10 to 40
CC(C)(C)c1ccc(-c2cc3nc(-c4ccncc4)nc(NCCN)c3s2)cc1 [compound 360, N*1*-[6-(4-tert-Butyl-phenyl)-2-pyridin-4-yl-thieno[3,2-d]pyrimidin-4-yl]-ethane-1,2-diamine] |  | 10 to 40
Cc1csc2c(NC[C@H](C)N)nc(-c3ccncc3)nc12 [compound 361, (S)-N*1*-(7-Methyl-2-pyridin-4-yl-thieno[3,2-d]pyrimidin-4-yl)-propane-1,2-diamine] |  | 0.1 to 1
Cc1csc2c(N3CCCNCC3)nc(-c3ccncc3)nc12 [compound 362, 4-[1,4]Diazepan-1-yl-7-methyl-2-pyridin-4-yl-thieno[3,2-d]pyrimidine] |  | 0.1 to 1
Cc1csc2c(N3CCNCC3)nc(-c3ccncc3)nc12 [compound 363, 7-Methyl-4-piperazin-1-yl-2-pyridin-4-yl-thieno[3,2-d]pyrimidine] |  | 0.1 to 1

Next, values leading:

IC50 [1] [µM] | IC50 [2] [µM] | Structure (SMILES)
1 to 10 |  | N[C@@H](COc1nc(-c2ccncc2)nc2sc3c(c12)CCCC3)Cc1cccc2ccccc12 [compound 173, (R)-1-Naphthalen-1-ylmethyl-2-(2-pyridin-4-yl-5,6,7,8-tetrahydro-benzo[4,5]thieno[2,3-d]pyrimidin-4-yloxy)-ethylamine]
1 to 10 |  | Cc1ccccc1C[C@H](N)COc1nc(-c2ccncc2)nc2sc3c(c12)CCCC3 [compound 174, (S)-1-(2-Methyl-benzyl)-2-(2-pyridin-4-yl-5,6,7,8-tetrahydro-benzo[4,5]thieno[2,3-d]pyrimidin-4-yloxy)-ethylamine]
10 to 40 |  | N[C@H](COc1nc(-c2ccncc2)nc2sc3c(c12)CCCC3)Cc1c[nH]cn1 [compound 175, (S)-1-(1H-Imidazol-4-ylmethyl)-2-(2-pyridin-4-yl-5,6,7,8-tetrahydro-benzo[4,5]thieno[2,3-d]pyrimidin-4-yloxy)-ethylamine]
10 to 40 |  | N[C@@H](COc1nc(-c2ccncc2)nc2sc3c(c12)CCCC3)Cc1csc2ccccc12 [compound 176, (R)-1-Benzo[b]thiophen-3-ylmethyl-2-(2-pyridin-4-yl-5,6,7,8-tetrahydro-benzo[4,5]thieno[2,3-d]pyrimidin-4-yloxy)-ethylamine]
10 to 40 |  | N[C@H](COc1nc(-c2ccncc2)nc2sc3c(c12)CCCC3)Cc1csc2ccccc12 [compound 177, (S)-1-Benzo[b]thiophen-3-ylmethyl-2-(2-pyridin-4-yl-5,6,7,8-tetrahydro-benzo[4,5]thieno[2,3-d]pyrimidin-4-yloxy)-ethylamine]
1 to 10 |  | c1cc(-c2nc(OC[C@H]3CCCCN3)c3c4c(sc3n2)CCCC4)ccn1 [compound 178, 4-((R)-1-Piperidin-2-ylmethoxy)-2-pyridin-4-yl-5,6,7,8-tetrahydro-benzo[4,5]thieno[2,3-d]pyrimidine]
10 to 40 |  | c1cc(-c2nc(OC[C@@H]3CCCCN3)c3c4c(sc3n2)CCCC4)ccn1 [compound 179, 4-((S)-1-Piperidin-2-ylmethoxy)-2-pyridin-4-yl-5,6,7,8-tetrahydro-benzo[4,5]thieno[2,3-d]pyrimidine]
1 to 10 |  | COc1cccc(C[C@H](N)COc2nc(-c3ccncc3)nc3sc4c(c23)CCCC4)c1 [compound 180, (S)-1-(3-Methoxy-benzyl)-2-(2-pyridin-4-yl-5,6,7,8-tetrahydro-benzo[4,5]thieno[2,3-d]pyrimidin-4-yloxy)-ethylamine]
0.1 to 1 |  | NCCNc1nc(-c2cn[nH]c2)nc2sc3c(c12)CCCC3 [compound 181, N*1*-[2-(1H-Pyrazol-4-yl)-5,6,7,8-tetrahydro-benzo[4,5]thieno[2,3-d]pyrimidin-4-yl]-ethane-1,2-diamine]
0.1 to 1 |  | Cc1n[nH]c(C)c1-c1nc(NCCN)c2c3c(sc2n1)CCCC3 [compound 182, N*1*-[2-(3,5-Dimethyl-1H-pyrazol-4-yl)-5,6,7,8-tetrahydro-benzo[4,5]thieno[2,3-d]pyrimidin-4-yl]-ethane-1,2-diamine]
0.1 to 1 |  | N[C@H](CNc1nc(-c2cn[nH]c2)nc2sc3c(c12)CCCC3)Cc1ccccc1 [compound 183, (S)-3-Phenyl-N*1*-[2-(1H-pyrazol-4-yl)-5,6,7,8-tetrahydro-benzo[4,5]thieno[2,3-d]pyrimidin-4-yl]-propane-1,2-diamine]
1 to 10 |  | Cc1n[nH]c(C)c1-c1nc(NC[C@@H](N)Cc2ccccc2)c2c3c(sc2n1)CCCC3 [compound 184, (S)-N*1*-[2-(3,5-Dimethyl-1H-pyrazol-4-yl)-5,6,7,8-tetrahydro-benzo[4,5]thieno[2,3-d]pyrimidin-4-yl]-3-phenyl-propane-1,2-diamine]
0.1 to 1 |  | c1n[nH]cc1-c1nc(N2CCNCC2)c2c3c(sc2n1)CCCC3 [compound 185, 4-Piperazin-1-yl-2-(1H-pyrazol-4-yl)-5,6,7,8-tetrahydro-benzo[4,5]thieno[2,3-d]pyrimidine]
0.1 to 1 |  | c1n[nH]cc1-c1nc(N2CCCNCC2)c2c3c(sc2n1)CCCC3 [compound 186, 4-[1,4]Diazepan-1-yl-2-(1H-pyrazol-4-yl)-5,6,7,8-tetrahydro-benzo[4,5]thieno[2,3-d]pyrimidine]
0.1 to 1 |  | C[C@H](N)CNc1nc(-c2cn[nH]c2)nc2sc3c(c12)CCCC3 [compound 187, (S)-N*1*-[2-(1H-Pyrazol-4-yl)-5,6,7,8-tetrahydro-benzo[4,5]thieno[2,3-d]pyrimidin-4-yl]-propane-1,2-diamine]
1 to 10 |  | C[C@@H](N)CNc1nc(-c2cn[nH]c2)nc2sc3c(c12)CCCC3 [compound 188, (R)-N*1*-[2-(1H-Pyrazol-4-yl)-5,6,7,8-tetrahydro-benzo[4,5]thieno[2,3-d]pyrimidin-4-yl]-propane-1,2-diamine]
0.1 to 1 |  | c1n[nH]cc1-c1nc(N[C@@H]2CCNC2)c2c3c(sc2n1)CCCC3 [compound 189, [2-(1H-Pyrazol-4-yl)-5,6,7,8-tetrahydro-benzo[4,5]thieno[2,3-d]pyrimidin-4-yl]-(R)-pyrrolidin-3-yl-amine]
0.1 to 1 |  | Cc1n[nH]c(C)c1-c1nc(N2CCNCC2)c2c3c(sc2n1)CCCC3 [compound 190, 2-(3,5-Dimethyl-1H-pyrazol-4-yl)-4-piperazin-1-yl-5,6,7,8-tetrahydro-benzo[4,5]thieno[2,3-d]pyrimidine]
1 to 10 |  | Cc1n[nH]c(C)c1-c1nc(NC[C@H](C)N)c2c3c(sc2n1)CCCC3 [compound 192, (S)-N*1*-[2-(3,5-Dimethyl-1H-pyrazol-4-yl)-5,6,7,8-tetrahydro-benzo[4,5]thieno[2,3-d]pyrimidin-4-yl]-propane-1,2-diamine]
10 to 40 |  | Cc1n[nH]c(C)c1-c1nc(NC[C@@H](C)N)c2c3c(sc2n1)CCCC3 [compound 193, (R)-N*1*-[2-(3,5-Dimethyl-1H-pyrazol-4-yl)-5,6,7,8-tetrahydro-benzo[4,5]thieno[2,3-d]pyrimidin-4-yl]-propane-1,2-diamine]
0.1 to 1 |  | Cc1n[nH]c(C)c1-c1nc(N[C@@H]2CCNC2)c2c3c(sc2n1)CCCC3 [compound 194, [2-(3,5-Dimethyl-1H-pyrazol-4-yl)-5,6,7,8-tetrahydro-benzo[4,5]thieno[2,3-d]pyrimidin-4-yl]-(R)-pyrrolidin-3-yl-amine]

From patent US10183950B2, “Thienopyrimidine inhibitors of atypical protein kinase C” (Cancer Research Technology Limited, priority 2011, dated 2019)
